Several values for one entry are separate records, joined by “and”; a condition that tells them apart may be missing. Equal entries are not always repeated. Entries after “also recorded” stand apart in the source; their conditions may differ.
How the values were obtained:
[1] = test system: CnAOEC cells; assay: 3H-thymidine proliferation test in canine aortic endothelial cells; assay type: cell-based; conditions: for effect on CnAOEC cell proliferation: reference substances, phase 1, 48 hours exposure
Protocol: The cells are cultured in a culture medium containing CECGM (Canine Endothelial Cell Growth Medium) growth factors and previously coated with AFS (Attachment Factor Solution) agent to assist with the adherence thereof.
The confluent CnAOEC cell cultures were re-inoculated in 96-well culture plates (10,000 cells per […]). Six hours after the inoculation thereof, the cells were exposed to ^3H-thymidine (final concentration: 1 μCi/ml) and to the respective test agents for 48 hours, and were subjected to two washing steps with PBS. After a treatment with trypsin and a freeze-thaw cycle, the DNA incorporating ^3H-thymidine was captured on a glass fiber filter using a “Betaplate™ 96-bien-Cell Harvester” (Wallac, Turku).
The quantities of ^3H-thymidine incorporated in the control cells (without adding test agent) were defined as 100% and the results were expressed as a function of these control cells.
The soy isoflavones were solubilized in DMSO. The experimental samples, and those of the respective controls (DMSO free from test substance) contained a final DMSO concentration of 1%.
The statistical evaluation is based on three or four separate experiments, each being performed with 2 to 4 independent wells.

[2] = DPPH antioxidant test; assay type: biochemical
Protocol: The absorbance of the mixture is read at 540 nm every 5 minutes for 30 minutes at ambient temperature. After reduction, the color of the solution disappears (change from a violet color to a light yellow color). The reduction (referred to herein as “inhibition” or “quenching”) percentage reflects the free radical scavenging capacity of the test sample. Trolox is also used as a positive control. The results are given as a DPPH radical inhibition percentage.

[3] = test system: CnAOEC cells; assay: Protection of CnAOEC cells against H2O2 oxidative stress, MTT viability; assay type: cell-based, canine; conditions: 2 mM H2O2; for protective effect on CnAOEC cell viability: 50 μg/ml; for protective effect on CnAOEC cell viability against H2O2: 1 to 250 μg/ml
Protocol: The plates are then centrifuged, and the formazan resulting from the reaction with MTT is solubilized in DMSO. The absorbance is measured at 570 nm, with a correction at 690 nm. The ability of the natural substances to protect cells against the adverse effects of oxidative stress was evaluated in CnAOEC cells. […] After the pretreatment period, the cells were subjected to oxidative stress (2 mM H2O2) for 24 hours and the cell viability was evaluated using the MTT test as described above. For this test, the data are means obtained from eight different experiments±Standard Deviation (SD). They were analyzed statistically using a one-way ANOVA Student t-test. The differences were considered to be significant when p<0.05.

[4] = Trolox Equivalent Antioxidant Capacity (TEAC) assay; assay type: biochemical; conditions: for ABTS radical inhibition: Table A, 50 μg/ml and 250 μg/ml where stated
Protocol: This method is based on the ability of antioxidant molecules to inactivate ABTS° ^+ radical with a long lifetime, compared to Trolox, a water-soluble vitamin E analog, used as the positive control. ABTS° ^+ radical is blue-green chromophore with a characteristic absorption at 734 nm.
The samples of the test substances and Trolox are diluted in PBS buffer to obtain the chosen concentrations, Then, 200 μl of ABTS° ^+ at a concentration of 7 mM is added to 50 μl of sample or Trolox solution in 96-well plates.
The absorbance of the various samples is read every 2 minutes for 6 minutes (incubation time) at ambient temperature. The results are given as a percentage of ABTS radical inhibition, and as Trolox equivalent (μM).

[5] = test system: CnAOEC cells; assay: 3H-thymidine DNA fragmentation apoptosis test in canine aortic endothelial cells; assay type: cell-based; conditions: for inhibition of the pro-apoptotic effects of free fatty acids: linoleic acid or γ-linolenic acid plus antioxidant, FIGS. 3 and 4; for effect on CnAOEC cell apoptosis: reference substances, phase 1, 24 hours exposure
Protocol: The 60 mm plates containing semi-confluent CnAOEC cells were labeled with ^3H-thymidine (1 μCi/ml) for 36 hours. These cells were then inoculated in 24-well culture plates (50,000 cells/well). After the exposure thereof to the agents under test (24 hours), the cells were treated with a lysis buffer (20 mmol/1 TrisHCl, pH 7.5, and 0.4% of Triton X-100 in PBS). The radiolabeled fragmented (apoptotic) DNA present in the supernatant was counted using a liquid scintillation analyzer. The results were then correlated with the total radioactivity incorporated in the cells (quantified after digestion of the remaining suspension with 180 μg/ml of DNase). The values calculated for the control cells (without adding test agent) were set at 100% and the results were expressed as a function of these control cells. Each time the reference substances were dissolved in ethanol (final concentration 1.5%), an identical quantity of ethanol was added to all the other wells, including the control wells.
The apoptosis tests were conducted with radiolabeled CnAOEC cells, at 60% confluence and in culture dishes previously treated with fibronectin.
The statistical evaluation is based on three separate experiments, each being performed with 2 to 4 independent wells.
The modulation of CnAOEC cell apoptosis (variation measured as a % relative to the control set at 100%) is performed in comparison to the reference substance glutathione (GSH).

[6] = test system: CnAOEC cells; assay type: cell-based, canine; conditions: dog, 24 h, 60 µM
Protocol: The MTT test was used for evaluating the viability of CNAOEC cells exposed to cytotoxic treatments (60 μM of digitonin or addition between 0.1% and 20% of DMSO or at increasing concentrations (ranging from 0.5 mM to 16 mM) of H2O2 for 24 hours so as to induce oxidative stress.
In this test, the cell damage is evaluated 24 hours after treatment with the cytotoxic substance by means of a 4-hour incubation with MTT at 0.5 mg/ml, 37° C. and 5% CO2. The plates are then centrifuged, and the formazan resulting from the reaction with MTT is solubilized in DMSO. The absorbance is measured at 570 nm, with a correction at 690 nm.
The MTT test was chosen to measure the cell viability on the basis of the data obtained after treating the cell with 60 μm digitonin (73% reduction±10%) and with 10% and 20% DMSO.
The damage to the CnAOEC cells caused by free radicals is obtained from a treatment with H2O2 at a concentration range from 0.5 mM to 16 mM.

[7] = humans; cited from earlier work
[8] = dogs; cited from earlier work

Question: With `C[N+](C)(C)C[C@H](O)CC(=O)[O-].O=C(O)C(O)C(O)C(=O)O` [L-carnitine, L-carnitine-L-tartrate] as the compound, how does the “drop in CnAOEC cell proliferation” value ([1]; 50 μg/ml, 48 hours) read?
Answer: The value was 3.75%.

Question: What about the “renewal rate (proliferation relative to control set at 100%)” value ([1]; 50 μg/ml, 48 hours) of the same compound?
Answer: The value was 96.25%.

Question: And the “% DPPH (radical inhibition)” value ([2]; sample 1 μg/ml)?
Answer: Its value is 6.74%.

Question: What about the “% DPPH (radical inhibition)” value ([2]; sample 50 μg/ml) of the same compound?
Answer: The value was 4.97%.

Question: And the “% DPPH (radical inhibition)” value ([2]; sample 250 μg/ml)?
Answer: The value was 15% and 14.94%.

Question: And the “DPPH scavenging activity” value ([2]; text on Table B)?
Answer: The value was “low”.

Question: And the “protective effect on CnAOEC cell viability” value [3]?
Answer: The value was “not capable of maintaining CnAOEC cell viability”.

Question: And the “protective effect on CnAOEC cell viability against H2O2” value [3]?
Answer: The value was “did not display a protective effect”.

Question: What about the “ABTS radical inhibition” value [4] of the same compound?
Answer: The value was “did not display any effect; also recorded: do not display any scavenging activity with ABTS”.

Question: And the “ABTS°+ inhibition %” value ([4]; sample 1 μg/ml)?
Answer: Its value is 0.45%.

Question: What about the “ABTS°+ inhibition %” value ([4]; sample 50 μg/ml) of the same compound?
Answer: The value was 0.37%.

Question: And the “ABTS°+ inhibition %” value ([4]; sample 250 μg/ml)?
Answer: The value was 0.92%.

Question: With `CC(=O)N[C@@H](CS)C(=O)O` [N-acetylcysteine] as the compound, how does the “inhibition of the pro-apoptotic effects of free fatty acids” value [5] read?
Answer: The value was “not completely inhibited”.

Question: And the “effect on CnAOEC cell apoptosis” value [5]?
Answer: Its value is “inhibit apoptosis in CnAOEC cells significantly; also recorded: cell apoptosis is inhibited”.

Question: For `NCCS(=O)(=O)O` [Taurine, taurine], which “drop in CnAOEC cell proliferation” value ([1]; 50 μg/ml, 48 hours) is on record?
Answer: The value was 4%.

Question: And the “% DPPH (radical inhibition)” value ([2]; sample 1 μg/ml)?
Answer: The value was 4.95%.

Question: What about the “% DPPH (radical inhibition)” value ([2]; sample 50 μg/ml) of the same compound?
Answer: Its value is 10.84%.

Question: And the “% DPPH (radical inhibition)” value ([2]; sample 250 μg/ml)?
Answer: The value was 25.09%.

Question: And the “% DPPH (radical inhibition)” value ([2]; sample 250 μg/ml, listed as taurine)?
Answer: Its value is 24%.

Question: What about the “protective effect on CnAOEC cell viability” value [3] of the same compound?
Answer: The value was “not capable of maintaining CnAOEC cell viability”.

Question: And the “protective effect on CnAOEC cell viability against H2O2” value [3]?
Answer: Its value is “did not display a protective effect”.

Question: What about the “ABTS radical inhibition” value [4] of the same compound?
Answer: Its value is “did not display any effect; also recorded: do not display any scavenging activity with ABTS”.

Question: And the “ABTS°+ inhibition %” value ([4]; sample 1 μg/ml)?
Answer: The value was −0.50%.

Question: And the “ABTS°+ inhibition %” value ([4]; sample 50 μg/ml)?
Answer: Its value is −0.69%.

Question: And the “ABTS°+ inhibition %” value ([4]; sample 250 μg/ml)?
Answer: The value was −0.62%.

Question: With `Cc1c(C)c2c(c(C)c1O)CCC(C)(C(=O)O)O2` (stereo not drawn) [Trolox, reference compound] as the compound, how does the “% DPPH (radical inhibition)” value ([2]; 5 μM) read?
Answer: The value was 4.21%.

Question: What about the “% DPPH (radical inhibition)” value ([2]; 10 μM) of the same compound?
Answer: The value was 9.91%.

Question: And the “% DPPH (radical inhibition)” value ([2]; 15 μM)?
Answer: Its value is 17.00%.

Question: And the “% DPPH (radical inhibition)” value ([2]; 20 μM)?
Answer: The value was 23.49%.

Question: What about the “% DPPH (radical inhibition)” value ([2]; 25 μM) of the same compound?
Answer: Its value is 28.6%.

Question: And the “% DPPH (radical inhibition)” value ([2]; 30 μM)?
Answer: Its value is 33.06%.

Question: And the “% DPPH (radical inhibition)” value ([2]; 40 μM)?
Answer: Its value is 41.18%.

Question: With `C[C@@H]1CC[C@@]2(OC1)O[C@H]1[C@@H](O)[C@H]3[C@@H]4CC[C@H]5C[C@@H](O[C@@H]6O[C@H](CO)[C@H](O[C@@H]7O[C@H](CO)[C@@H](O)[C@H](O[C@@H]8OC[C@@H](O)[C@H](O)[C@H]8O)[C@H]7O[C@@H]7O[C@H](CO)[C@H](O)[C@H](O[C@@H]8O[C@H](CO)[C@@H](O)[C@H](O)[C@H]8O)[C@H]7O)[C@H](O)[C@H]6O)[C@H](O)C[C@]5(C)[C@H]4CC[C@]3(C)[C@H]1[C@@H]2C` [digitonin] as the compound, how does the “reduction of cell viability (MTT)” value [6] read?
Answer: Its value is 73%.

Question: For `O=c1oc2c(O)c(O)cc3c(=O)oc4c(O)c(O)cc1c4c23` [ellagic acid], which “plasma concentration after dietary supplementation with pomegranate extract” value [7] is on record?
Answer: Its value is “approximately 10 μg/ml”.

Question: Which “plasma concentrations after oral supplementation” value [8] does the source give for `O=c1c(-c2ccc(O)cc2)coc2cc(O)cc(O)c12` [genistein] here?
Answer: Its value is no more than 5000 ng/mL.

Question: For `N[C@@H](CCC(=O)N[C@@H](CS)C(=O)NCC(=O)O)C(=O)O` [glutathione], which “proliferation, % of the control” value ([1]; 10 mmol/l, positive control) is on record?
Answer: Its value is 54.75%.

Question: What about the “effect on CnAOEC cell proliferation” value [1] of the same compound?
Answer: The value was “reduce CnAOEC cell proliferation considerably”.

Question: And the “inhibition of the pro-apoptotic effects of free fatty acids” value [5]?
Answer: The value was “not completely inhibited”.

Question: And the “effect on CnAOEC cell apoptosis” value [5]?
Answer: Its value is “inhibit apoptosis in CnAOEC cells significantly; also recorded: cell apoptosis is inhibited”.

Question: With `CCCCC/C=C\C/C=C\CCCCCCCC(=O)O` [linoleic acid, reference compound] as the compound, how does the “effect on CnAOEC cell proliferation” value [1] read?
Answer: The value was “inhibit endothelial proliferation completely; also recorded: reduce CnAOEC cell proliferation considerably”.

Question: And the “effect on CnAOEC cell apoptosis” value [5]?
Answer: Its value is “very strong pro-apoptotic reaction”.

Question: Which results are given for `CCCCC/C=C\C/C=C\C/C=C\CCCCC(=O)O` [γ-linolenic acid, reference compound]?
Answer: effect on CnAOEC cell proliferation [1]: inhibit endothelial proliferation completely; also recorded: reduce CnAOEC cell proliferation considerably; effect on CnAOEC cell apoptosis [5]: very strong pro-apoptotic reaction

Question: Which “effect on CnAOEC cell proliferation” value [1] does the source give for VEGF here?
Answer: Its value is “no pro-proliferation effect on CnAOEC cells; also recorded: did not induce the same response in CnAOEC cells; also recorded: have no influence on CnAOEC cell proliferation”.

Question: With “bFGF: basic Fibroblast Growth Factor, vascular growth factor reference” as the compound, how does the “effect on CnAOEC cell proliferation” value [1] read?
Answer: The value was “no pro-proliferation effect on CnAOEC cells; also recorded: did not induce the same response in CnAOEC cells; also recorded: have no influence on CnAOEC cell proliferation”.

— patent US20140335180A1, “PRODUCTS FOR ORAL ADMINISTRATION COMPRISING EXTRACTS OF PUNICA GRANATUM (POMEGRANATE), INTENDED FOR A PET, AND APPLICATIONS OF SAME” (VIRBAC SA, priority 2011, published 2014)
